Substitutions are numbered along the chain they refer to. Names may count otherwise.
Assays:
CtUba4 (full length) = biological target: T1, CtUba4 (full length) (Thermochaetoides thermophila, UniProt G0SC54); experiment: thermal shift assay (SYPRO Orange); type: binding; details: 1 mM AMP, 2 mM MgCl2, 2 mM DTT, pH 7.5
T1 construct: gene uba4; full length aa 1-444, codon-optimised, E. coli BL21(DE3) pRARE, His6 or His6-GST tag TEV-cleaved, homodimer

CtUba4 AD = biological target: T2, CtUba4 AD (Thermochaetoides thermophila, UniProt G0SC54); experiment: thermal shift assay (SYPRO Orange); type: binding; details: 1 mM AMP, 2 mM MgCl2, 2 mM DTT, pH 7.5
T2 construct: gene uba4; adenylation domain aa 1-290, E. coli, His6-GST tag TEV-cleaved, dimer

CtUba4-CtUrm1 [1] = biological target: T3, CtUba4-CtUrm1 (Thermochaetoides thermophila, UniProt G0SC54, N307A/M308A); experiment: pyrophosphate release (fluorometric kit); Malachite Green phosphate; type: biochemical; details: 20 μM ATP, CtUrm1 7.5 μM, 0.5 mM MgCl2, pH 6.0, 37 °C
T3 construct: gene uba4; full-length CtUba4 (1-444) plus CtUrm1, both from E. coli, tags TEV-cleaved (GST kept on CtUrm1 in pull-down); with Ubiquitin-related modifier 1
T3 sequence (G0SC54 entry or part of it N307A/M308A, one chain of several): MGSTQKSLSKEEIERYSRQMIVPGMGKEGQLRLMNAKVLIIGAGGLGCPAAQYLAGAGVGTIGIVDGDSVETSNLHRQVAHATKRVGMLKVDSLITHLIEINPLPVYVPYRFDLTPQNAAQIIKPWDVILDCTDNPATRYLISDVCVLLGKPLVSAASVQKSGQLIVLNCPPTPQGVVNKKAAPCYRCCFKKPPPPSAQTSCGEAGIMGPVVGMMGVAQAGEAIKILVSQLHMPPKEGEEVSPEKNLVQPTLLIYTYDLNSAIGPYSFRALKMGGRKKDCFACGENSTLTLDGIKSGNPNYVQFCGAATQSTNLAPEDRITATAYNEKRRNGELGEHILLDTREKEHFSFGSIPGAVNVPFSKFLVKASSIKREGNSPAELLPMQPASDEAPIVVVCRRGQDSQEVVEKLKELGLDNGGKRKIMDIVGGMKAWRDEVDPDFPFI

CtUba4-CtUrm1 [2] = biological target: T4, CtUba4-CtUrm1 (Thermochaetoides thermophila, UniProt G0SC54); experiment: as above; type: biochemical; details: 20 μM ATP, CtUrm1 7.5 μM, 0.5 mM MgCl2, pH 6.0, 37 °C
T4 construct: gene uba4; full-length CtUba4 (1-444) plus CtUrm1, both from E. coli, tags TEV-cleaved (GST kept on CtUrm1 in pull-down); with Ubiquitin-related modifier 1

[3] = biological target: T5, ADlinker 1-321 (with CtUrm1) (Thermochaetoides thermophila, UniProt G0SC54); experiment: as above; type: biochemical; details: 20 μM ATP, CtUrm1 7.5 μM, 0.5 mM MgCl2, pH 6.0, 37 °C
T5 construct: gene uba4; adenylation domain plus complete linker, aa 1-321, E. coli; assayed with CtUrm1; with Ubiquitin-related modifier 1
T5 sequence (G0SC54 1-321): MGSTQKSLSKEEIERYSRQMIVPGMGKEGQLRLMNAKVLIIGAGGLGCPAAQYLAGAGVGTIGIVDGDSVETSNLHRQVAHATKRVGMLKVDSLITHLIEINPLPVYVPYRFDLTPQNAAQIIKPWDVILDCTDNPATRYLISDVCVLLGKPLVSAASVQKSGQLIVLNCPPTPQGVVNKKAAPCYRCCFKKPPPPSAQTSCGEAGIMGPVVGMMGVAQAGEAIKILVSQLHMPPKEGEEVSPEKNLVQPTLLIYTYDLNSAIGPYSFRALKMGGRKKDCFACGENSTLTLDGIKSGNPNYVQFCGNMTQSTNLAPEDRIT
T5 sequence (G0SE11 1-110 partner): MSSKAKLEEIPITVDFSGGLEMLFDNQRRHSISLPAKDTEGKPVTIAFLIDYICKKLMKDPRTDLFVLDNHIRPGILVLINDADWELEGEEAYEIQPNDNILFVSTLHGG

CtUba4-CtUrm1 [4] = biological target: T4, CtUba4-CtUrm1; experiment: GST pull-down of CtUba4 with GST-CtUrm1 (nucleotide-stabilised complex); type: binding; details: 1 mM nucleotide, 2 mM MgCl2, pH 6.0, 37 °C
[5] = biological target: the molecule itself; experiment: crystal structure; apo full-length CtUba4, no nucleotide; 50 mM HEPES pH 6.9-7.0, PEG 4000, 21°C; 2.2 Å
[6] = biological target: the molecule itself; experiment: crystal structure; CtUba4 C202K, CtUrm1 and ATP (1.00:1.25:2.25) incubated in 100 mM MES pH 6.0, 100 mM NaCl, 2 mM MgCl2 at 37°C for 30 min, complex isolated on Superdex 200 Increase; crystals in 0.1 M HEPES pH 7.5, 20% PEG 3350; 3.15 Å
[7] = biological target: the molecule itself; experiment: SEC + SEC-MALS; SEC profiles and static light scattering (RALS/LALS) after Superdex 75 10/300 GL; 1 mg/ml; 20 mM Tris pH 7.5, 150 mM NaCl, 1 mM DTT

`Nc1ncnc2c1ncn2[C@@H]1O[C@H](COP(=O)(O)O)[C@@H](O)[C@H]1O` [AMP] was tested, and the melting temperature (CtUba4 (full length)) was “AMP increased the thermal stability of full‐length Uba4 and the AD alone” and the melting temperature (CtUba4 AD) was “AMP increased the thermal stability of full‐length Uba4 and the AD alone”.

In the case of `Nc1ncnc2c1ncn2[C@@H]1O[C@H](COP(=O)(O)OP(=O)(O)OP(=O)(O)O)[C@@H](O)[C@H]1O` [ATP], the “pyrophosphate release (fluorometric kit); Malachite Green phosphate” value (“pyrophosphate release (fluorometric kit)” for short) (CtUba4-CtUrm1 [1]) is reported as “mutations of the linker residues Asn307 and Met308”, the “pyrophosphate release (fluorometric kit)” value (CtUba4-CtUrm1 [2]) is reported as “ATP hydrolysis capacity of CtUba4 WT and mutants in the presence of CtUrm1” and the “pyrophosphate release (fluorometric kit)” value [3] is reported as “it stimulates the ATP hydrolysis activity of the AD in the presence of Urm1”.

`Nc1ncnc2c1ncn2[C@@H]1O[C@H](COP(=O)(O)OP(=O)(O)NP(=O)(O)O)[C@@H](O)[C@H]1O` [AMP-PNP] was tested, and the “GST pull-down of CtUba4 with GST-CtUrm1 (nucleotide-stabilised complex)” value (CtUba4-CtUrm1 [4]) was “complex is stabilized most efficiently in the presence of ATP and AMP‐PNP”.

B1: Chaetomium thermophilum Uba4 (ubiquitin-like protein activator 4), full length, wild type (enzyme, UniProt G0SC54 1-444, looked up)
chain: MGSTQKSLSKEEIERYSRQMIVPGMGKEGQLRLMNAKVLIIGAGGLGCPAAQYLAGAGVGTIGIVDGDSVETSNLHRQVAHATKRVGMLKVDSLITHLIEINPLPVYVPYRFDLTPQNAAQIIKPWDVILDCTDNPATRYLISDVCVLLGKPLVSAASVQKSGQLIVLNCPPTPQGVVNKKAAPCYRCCFKKPPPPSAQTSCGEAGIMGPVVGMMGVAQAGEAIKILVSQLHMPPKEGEEVSPEKNLVQPTLLIYTYDLNSAIGPYSFRALKMGGRKKDCFACGENSTLTLDGIKSGNPNYVQFCGNMTQSTNLAPEDRITATAYNEKRRNGELGEHILLDTREKEHFSFGSIPGAVNVPFSKFLVKASSIKREGNSPAELLPMQPASDEAPIVVVCRRGQDSQEVVEKLKELGLDNGGKRKIMDIVGGMKAWRDEVDPDFPFI
notes: Uba4 of Chaetomium thermophilum, UniProt G0SC54, full length aa 1-444; Expressed from pETM30 (N-terminal His6 and GST) and pETM11 (N-terminal His6); tags cleaved with TEV; Codon-optimised gene; also called CtUba4; CtUba4 FL; source: E. coli BL21(DE3) pRARE, purified (Ni-NTA, TEV cleavage, second Ni-NTA, SEC Superdex 200); not shown: His6, N-terminal, cleaved
In the case of B1, the “stoichiometry N” value [5] is reported as 2.

B2: CtUba4 C202K, full length (enzyme, Chaetomium thermophilum, UniProt G0SC54 1-444, looked up)
chain: B1 chain with C202K
notes: Uba4 of Chaetomium thermophilum, UniProt G0SC54, full length aa 1-444 with C202K; With Urm1 and ATP the epsilon-amino group of Lys202 forms a non-hydrolysable iso-peptide bond with Gly111 of Urm1; The RHD is present in the crystals but has no density; source: E. coli BL21(DE3) pRARE, purified (Ni-NTA, TEV cleavage, SEC Superdex 200); not shown: His6, N-terminal, cleaved
For B2, the “stoichiometry N” value [6] was 2.

B3: CtUba4 adenylation domain (1-290) (domain or fragment, Chaetomium thermophilum, UniProt G0SC54 1-290, looked up)
chain: MGSTQKSLSKEEIERYSRQMIVPGMGKEGQLRLMNAKVLIIGAGGLGCPAAQYLAGAGVGTIGIVDGDSVETSNLHRQVAHATKRVGMLKVDSLITHLIEINPLPVYVPYRFDLTPQNAAQIIKPWDVILDCTDNPATRYLISDVCVLLGKPLVSAASVQKSGQLIVLNCPPTPQGVVNKKAAPCYRCCFKKPPPPSAQTSCGEAGIMGPVVGMMGVAQAGEAIKILVSQLHMPPKEGEEVSPEKNLVQPTLLIYTYDLNSAIGPYSFRALKMGGRKKDCFACGENSTLT
notes: Uba4 of Chaetomium thermophilum, UniProt G0SC54, adenylation domain residues 1-290; source: E. coli BL21(DE3) pRARE, purified (Ni-NTA, TEV cleavage, SEC); not shown: His6, N-terminal, cleaved; GST, N-terminal, cleaved
In the case of B3, the “stoichiometry N” value [7] is reported as 2.

B4: CtUba4 rhodanese-like domain (319-444) (domain or fragment, Chaetomium thermophilum, UniProt G0SC54 319-444, looked up)
chain: RITATAYNEKRRNGELGEHILLDTREKEHFSFGSIPGAVNVPFSKFLVKASSIKREGNSPAELLPMQPASDEAPIVVVCRRGQDSQEVVEKLKELGLDNGGKRKIMDIVGGMKAWRDEVDPDFPFI
notes: Uba4 of Chaetomium thermophilum, UniProt G0SC54, rhodanese-like domain residues 319-444; also called CtUba4 RHD; RHD; source: E. coli BL21(DE3) pRARE, purified (Ni-NTA, TEV cleavage, SEC Superdex 75); not shown: His6, N-terminal, cleaved; GST, N-terminal, cleaved
B4 was tested, and the “stoichiometry N” value [7] was 2.

— publication PMC7527816, “Molecular basis for the bifunctional Uba4–Urm1 sulfur‐relay system in tRNA thiolation and ubiquitin‐like conjugation” (The EMBO Journal, 2020)
